From ChEMBL document CHEMBL2034882, “Synthesis, biological evaluation and molecular docking studies of novel 2-(1,3,4-oxadiazol-2-ylthio)-1-phenylethanone derivatives” (Bioorg Med Chem, 2012)

Tests used:
MCF7 = assay: Cytotoxicity against human MCF7 cells after 24 hrs using Annexin VeFITC/propidium iodide staining by MTT assay; assay type: functional, cell-based; conditions: MCF7, 24 h
A-431 [1] = assay: Cytotoxicity against human A431 cells after 24 hrs […] by MTT assay; assay type: functional, cell-based; conditions: A-431, 24 h
[2] = Inhibition of bovine brain FAK after 20 mins by turbidimetry; design: species or system Bos taurus
A-431 [3] = assay: Induction of apoptosis in human A431 cells assessed as late apoptotic cells at 5 nM after 24 hrs using Annexin VeFITC/propidium iodide staining by flow cytometry; assay type: functional
A-431 [4] = assay: Induction of apoptosis in human A431 cells assessed as early apoptotic cells at 5 nM after 24 hrs using Annexin VeFITC/propidium iodide staining by flow cytometry; assay type: functional
A-431 [5] = assay: Induction of apoptosis in human A431 cells assessed as necrotic cells at 5 nM after 24 hrs using Annexin VeFITC/propidium iodide staining by flow cytometry; assay type: functional
A-431 [6] = assay: Induction of apoptosis in human A431 cells assessed as early apoptotic cells at 10 nM after 24 hrs using Annexin VeFITC/propidium iodide staining by flow cytometry; assay type: functional
A-431 [7] = assay: Induction of apoptosis in human A431 cells assessed as late apoptotic cells at 10 nM after 24 hrs using Annexin VeFITC/propidium iodide staining by flow cytometry; assay type: functional
A-431 [8] = assay: Induction of apoptosis in human A431 cells assessed as necrotic cells at 10 nM after 24 hrs using Annexin VeFITC/propidium iodide staining by flow cytometry; assay type: functional
A-431 [9] = assay: Induction of apoptosis in human A431 cells assessed as early apoptotic cells at 20 nM after 24 hrs using Annexin VeFITC/propidium iodide staining by flow cytometry; assay type: functional
A-431 [10] = assay: Induction of apoptosis in human A431 cells assessed as late apoptotic cells at 20 nM after 24 hrs using Annexin VeFITC/propidium iodide staining by flow cytometry; assay type: functional
A-431 [11] = assay: Induction of apoptosis in human A431 cells assessed as necrotic cells at 20 nM after 24 hrs using Annexin VeFITC/propidium iodide staining by flow cytometry; assay type: functional
A-431 [12] = assay: Induction of apoptosis in human A431 cells assessed as early apoptotic cells at 40 nM after 24 hrs using Annexin VeFITC/propidium iodide staining by flow cytometry; assay type: functional
A-431 [13] = assay: Induction of apoptosis in human A431 cells assessed as late apoptotic cells at 40 nM after 24 hrs using Annexin VeFITC/propidium iodide staining by flow cytometry; assay type: functional
A-431 [14] = assay: Induction of apoptosis in human A431 cells assessed as necrotic cells at 40 nM after 24 hrs using Annexin VeFITC/propidium iodide staining by flow cytometry; assay type: functional
A-431 [15] = assay: Induction of apoptosis in human A431 cells assessed as viable cells at 5 nM after 24 hrs using Annexin VeFITC/propidium iodide staining by flow cytometry; assay type: functional; conditions: A-431, 24 h, read-out: Activity
A-431 [16] = assay: Induction of apoptosis in human A431 cells assessed as viable cells at 10 nM after 24 hrs using Annexin VeFITC/propidium iodide staining by flow cytometry; assay type: functional; conditions: A-431, 24 h, read-out: Activity
A-431 [17] = assay: Induction of apoptosis in human A431 cells assessed as viable cells at 20 nM after 24 hrs using Annexin VeFITC/propidium iodide staining by flow cytometry; assay type: functional; conditions: A-431, 24 h, read-out: Activity
A-431 [18] = assay: Induction of apoptosis in human A431 cells assessed as viable cells at 40 nM after 24 hrs using Annexin VeFITC/propidium iodide staining by flow cytometry; assay type: functional; conditions: A-431, 24 h, read-out: Activity
A-431 [19] = assay: Induction of apoptosis in human A431 cells after 24 hrs using Annexin VeFITC/propidium iodide staining by flow cytometry; assay type: functional, cell-based

IC50 [2] | SMILES | IC50 (MCF7) | IC50 (A-431 [1]) | further results
580 nM | COc1ccccc1-c1nnc(SCC(=O)c2ccccc2)o1 | 2070 nM | 20 nM | 
21500 nM | CN(C)c1ccc(-c2nnc(SCC(=O)c3ccc(Br)cc3)o2)cc1 | 550 nM | 200 nM | 
76300 nM | O=C(CSc1nnc(-c2ccncc2)o1)c1ccc(Br)cc1 | 4230 nM | 780 nM | 
18600 nM | CC(C)(C)c1ccc(-c2nnc(SCC(=O)c3ccccc3)o2)cc1 | 50 nM | 170 nM | 
59800 nM | CCOc1ccccc1-c1nnc(SCC(=O)c2ccccc2)o1 | 2670 nM | 650 nM | 
17900 nM | O=C(CSc1nnc(-c2cccc3ccccc23)o1)c1ccc(Br)cc1 | 260 nM | 160 nM | 
98700 nM | O=C(CSc1nnc(-c2ccncc2)o1)c1ccccc1 | 370 nM | 1000 nM | 
1220 nM | O=C(CSc1nnc(-c2ccccc2F)o1)c1ccccc1 | 260 nM | 50 nM | 
 | CN[C@@H]1C[C@H]2O[C@@](C)([C@@H]1OC)n1c3ccccc3c3c4c(c5c6ccccc6n2c5c31)C(=O)NC4 [STAUROSPORINE] |  | 70 nM | 
302000 nM | O=C(CSc1nnc(-c2ccnc(Cl)c2)o1)c1ccccc1 | 1290 nM | 3200 nM | 
40500 nM | CCOc1ccccc1-c1nnc(SCC(=O)c2ccc(Br)cc2)o1 | 460 nM | 360 nM | 
9800 nM | CC(C)(C)c1ccc(-c2nnc(SCC(=O)c3ccc(Br)cc3)o2)cc1 | 1950 nM | 100 nM | 
760 nM | Cc1ccc(-c2nnc(SCC(=O)c3ccccc3)o2)c(O)c1 | 150 nM | 60 nM | 
970 nM | O=C(CSc1nnc(-c2ccnc(Cl)c2)o1)c1ccc(Br)cc1 | 270 nM | 50 nM | 
20 nM | Nc1cc(-c2nnc(SCC(=O)c3ccccc3)o2)ccn1 | 140 nM | 10 nM | Activity (A-431 [3]): 9.47%; Activity (A-431 [4]): 16.77%; Activity (A-431 [5]): 8%; Activity (A-431 [6]): 17.47%; Activity (A-431 [7]): 12.23%; Activity (A-431 [8]): 9%; Activity (A-431 [9]): 28.92%; Activity (A-431 [10]): 15.26%; Activity (A-431 [11]): 6%; Activity (A-431 [12]): 43.51%; Activity (A-431 [13]): 16.65%; Activity (A-431 [14]): 6%; viability at 0.005 µM (A-431 [15]): 65.8%; viability at 0.01 µM (A-431 [16]): 61.3%; viability at 0.02 µM (A-431 [17]): 49.8%; viability at 0.04 µM (A-431 [18]): 33.8%; Activity (A-431 [19]): Dose-dependent effect
650 nM | COc1cc(OC)cc(-c2nnc(SCC(=O)c3ccccc3)o2)c1 | 170 nM | 40 nM | 
1350 nM | COc1ccccc1-c1nnc(SCC(=O)c2ccc(Br)cc2)o1 | 600 nM | 80 nM | 
35400 nM | COc1ccc(-c2nnc(SCC(=O)c3ccc(Br)cc3)o2)c(O)c1 | 260 nM | 330 nM | 
2670 nM | Cc1ccc(-c2nnc(SCC(=O)c3ccc(Br)cc3)o2)c(O)c1 | 2070 nM | 50 nM | 
1150 nM | Nc1cc(-c2nnc(SCC(=O)c3ccc(Br)cc3)o2)ccn1 | 200 nM | 60 nM | 
19800 nM | O=C(CSc1nnc(-c2ccccc2F)o1)c1ccc(Br)cc1 | 240 nM | 200 nM | 
20500 nM | COc1ccc(-c2nnc(SCC(=O)c3ccccc3)o2)c(O)c1 | 280 nM | 180 nM | 
1080 nM | COc1cc(OC)cc(-c2nnc(SCC(=O)c3ccc(Br)cc3)o2)c1 | 270 nM | 60 nM | 
17500 nM | CN(C)c1ccc(-c2nnc(SCC(=O)c3ccccc3)o2)cc1 | 210 nM | 160 nM | 
5800 nM | O=C(CSc1nnc(-c2cccc3ccccc23)o1)c1ccccc1 | 230 nM | 130 nM | 
